For four compounds, Ki results are on record in BindingDB's records for doi:10.1146/annurev.pa.30.040190.003221 (National Institute For Medical Research, 1990).

The target in experiment [1] is Muscarinic acetylcholine receptor M3 (Rattus norvegicus, UniProt P08483).
Experiment [2] deals with T1, Muscarinic acetylcholine receptor M1 (Rattus norvegicus, UniProt P08482).
T1 sequence (P08482 whole entry): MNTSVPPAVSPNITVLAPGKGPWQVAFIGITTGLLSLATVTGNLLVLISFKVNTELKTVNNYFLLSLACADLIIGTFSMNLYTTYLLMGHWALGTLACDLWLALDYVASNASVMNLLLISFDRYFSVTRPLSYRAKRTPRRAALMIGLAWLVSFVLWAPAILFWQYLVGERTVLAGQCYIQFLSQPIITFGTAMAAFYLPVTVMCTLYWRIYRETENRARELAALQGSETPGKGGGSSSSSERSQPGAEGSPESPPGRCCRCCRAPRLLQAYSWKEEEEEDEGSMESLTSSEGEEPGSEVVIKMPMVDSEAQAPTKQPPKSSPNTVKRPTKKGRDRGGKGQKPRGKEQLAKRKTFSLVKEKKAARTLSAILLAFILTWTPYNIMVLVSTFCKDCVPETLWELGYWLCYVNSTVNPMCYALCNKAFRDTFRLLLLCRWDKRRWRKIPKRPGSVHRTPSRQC

Experiment [3] addresses T2, Muscarinic acetylcholine receptor M2 (Rattus norvegicus, UniProt P10980).
T2 sequence (P10980 whole entry): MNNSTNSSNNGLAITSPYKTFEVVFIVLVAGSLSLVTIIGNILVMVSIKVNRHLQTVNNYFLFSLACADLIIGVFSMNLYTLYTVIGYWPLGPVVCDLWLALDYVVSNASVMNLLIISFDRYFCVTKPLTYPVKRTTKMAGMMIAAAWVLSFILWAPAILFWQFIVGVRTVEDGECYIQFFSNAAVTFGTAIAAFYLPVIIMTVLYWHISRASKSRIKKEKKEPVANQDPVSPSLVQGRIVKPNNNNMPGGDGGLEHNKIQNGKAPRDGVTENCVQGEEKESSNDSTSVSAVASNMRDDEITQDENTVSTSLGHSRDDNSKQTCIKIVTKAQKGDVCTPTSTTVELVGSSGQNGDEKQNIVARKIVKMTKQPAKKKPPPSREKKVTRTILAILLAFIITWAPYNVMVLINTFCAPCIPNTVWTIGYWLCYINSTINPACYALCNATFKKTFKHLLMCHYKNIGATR

Muscarinic acetylcholine receptor M3, sequence (P08483 whole entry): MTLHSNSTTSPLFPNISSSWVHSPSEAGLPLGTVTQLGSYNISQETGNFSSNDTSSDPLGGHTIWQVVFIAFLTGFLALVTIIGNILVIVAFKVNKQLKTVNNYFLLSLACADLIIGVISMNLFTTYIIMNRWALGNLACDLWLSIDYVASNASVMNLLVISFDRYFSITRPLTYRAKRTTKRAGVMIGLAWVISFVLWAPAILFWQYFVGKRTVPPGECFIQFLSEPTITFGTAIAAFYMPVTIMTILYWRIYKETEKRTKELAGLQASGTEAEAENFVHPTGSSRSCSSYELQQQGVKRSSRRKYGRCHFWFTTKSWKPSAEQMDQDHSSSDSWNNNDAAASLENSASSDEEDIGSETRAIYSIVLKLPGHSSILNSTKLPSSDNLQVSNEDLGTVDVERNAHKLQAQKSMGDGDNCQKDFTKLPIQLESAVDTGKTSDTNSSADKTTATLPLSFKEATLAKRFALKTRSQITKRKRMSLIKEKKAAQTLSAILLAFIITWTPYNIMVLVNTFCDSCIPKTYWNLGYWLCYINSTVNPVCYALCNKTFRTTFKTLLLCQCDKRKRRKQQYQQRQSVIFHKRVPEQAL

Consider `CCN(CC)CC1CCCCN1CC(=O)N1c2ccccc2C(=O)Nc2cccnc21` (centres undefined) [(AF-DX 116) 11-[2-(2-Diethylaminomethyl-piperidin-1-yl)-acetyl]-5,11-dihydro-benzo[e]pyrido[3,2-b][1,4]diazepin-6-one], for which the results for the inhibition constant Ki in experiment [1] and in experiment [2] were 1260 nM and 398 nM, respectively.

For the compound `CC(=O)N[C@H]1CO[C@H](COS(=O)(=O)O)[C@@H](O[C@@H]2O[C@H](C(=O)O)[C@@H](O[C@H]3O[C@H](CO)[C@@H](O[C@@H]4O[C@@H](C(=O)O)[C@@H](O)[C@H](O)[C@H]4OS(=O)(=O)O)[C@H](OS(=O)(=O)O)[C@H]3NS(=O)(=O)O)[C@H](O)[C@H]2OS(=O)(=O)O)[C@@H]1O` [CAS_9050-30-0], the Ki (usually a dissociation constant, usually derived from enzyme kinetics or from competition with a known ligand) in experiment [3] amounted to 126 nM; in experiment [1], 6.31 nM; in experiment [2], 12.6 nM.

Regarding `C[C@H]1OC(=O)C2C[C@H]3CCCC[C@@H]3[C@@H](/C=C/[C@@H]3CCC[C@H](C)N3C)C21` (some centres undefined) [HIMBACINE], the Ki in experiment [3] turned out to be 7.94 nM; in experiment [1] it was 126 nM; in experiment [2], 100 nM.

`COc1ccccc1CNCCCCCCNCCCCCCCCNCCCCCCNCc1ccccc1OC` [METHOCTRAMINE] had an inhibitory constant (Ki) in experiment [1] of 316 nM.
